Measured values as given in US20250100977A1, “MERCAPTOPYRIMIDINE COMPOUNDS THAT INHIBIT NONHOMOLOGOUS END JOINING AND METHODS THEREOF” (INDIAN INSTITUTE OF SCIENCE, priority 2021, published 2025).
pIC50: −log10 of the molar value. Values joined by “and” are separate entries in the source; they are usually repeats but may differ in a detail not shown here. Equal values may be shown once. Read-outs that look alike come from different tables or passages of the source.

What was measured:
HeLa cells = test: Neutral comet assay in HeLa cells; assay type: cell-based; conditions: 24 h; SCR116 5 μM, SCR132 2 μM; radiation 0.5 Gy; vs control
Experimental: (§1) FIG. 8(A-B) depicts accumulation of DSBs inside cells following treatment with the compounds. A. Representative images for HeLa cells subjected to neutral comet assay following treatment with SCR116 and SCR132 for 24 h. […] FIG. 8C, D are representative images for Nalm6 cells (C) and N114 cells (D) following treatment with SCR116 and SCR132 for 24 h. and FIG. 8E, F are scatter plot depicting quantification of percentage of 53BP1 foci treated with SCR116 (2, 5 μM) and SCR132 (1, 2 μM) in Nalm6 and N114.

DNA Ligase IV/XRCC4 = target: T1, DNA Ligase IV/XRCC4 (Homo sapiens, UniProt P49917); test: Inhibition of end joining by purified DNA Ligase IV/XRCC4; assay type: biochemical; conditions: for inhibition at 50 µM: Ligase IV; for Inhibition of end joining compared with control: 200 μM, purified Ligase IV/XRCC4; for Concentration from which inhibition of end joining was seen: dose titration with Ligase IV
T1 construct: made in house; host or cells: bacteria
T1 sequence (P49917 whole entry): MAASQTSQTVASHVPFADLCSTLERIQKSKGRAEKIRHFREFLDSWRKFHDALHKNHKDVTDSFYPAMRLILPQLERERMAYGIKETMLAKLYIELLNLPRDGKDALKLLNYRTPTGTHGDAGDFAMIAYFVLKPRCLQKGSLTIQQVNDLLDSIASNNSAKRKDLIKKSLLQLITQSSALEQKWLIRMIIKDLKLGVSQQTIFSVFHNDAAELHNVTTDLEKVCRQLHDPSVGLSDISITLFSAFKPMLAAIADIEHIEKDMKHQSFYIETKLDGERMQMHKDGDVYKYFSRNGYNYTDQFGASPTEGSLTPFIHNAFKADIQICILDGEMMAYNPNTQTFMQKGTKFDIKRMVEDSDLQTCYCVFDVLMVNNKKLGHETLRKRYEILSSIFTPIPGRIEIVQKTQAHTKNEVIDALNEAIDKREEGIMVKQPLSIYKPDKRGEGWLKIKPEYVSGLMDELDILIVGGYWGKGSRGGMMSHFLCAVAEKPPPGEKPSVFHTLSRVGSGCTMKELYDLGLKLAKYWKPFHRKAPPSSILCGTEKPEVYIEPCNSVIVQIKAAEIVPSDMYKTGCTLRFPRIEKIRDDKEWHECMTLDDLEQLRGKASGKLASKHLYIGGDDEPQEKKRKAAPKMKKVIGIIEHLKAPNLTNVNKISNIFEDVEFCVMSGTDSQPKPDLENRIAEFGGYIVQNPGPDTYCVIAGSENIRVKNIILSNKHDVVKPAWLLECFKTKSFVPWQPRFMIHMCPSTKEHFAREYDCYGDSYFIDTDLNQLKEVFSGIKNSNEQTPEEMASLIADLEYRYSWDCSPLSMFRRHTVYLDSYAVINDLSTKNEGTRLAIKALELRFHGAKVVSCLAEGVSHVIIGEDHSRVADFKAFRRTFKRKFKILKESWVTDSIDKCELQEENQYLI
T1 sequence (Q13426 whole entry partner): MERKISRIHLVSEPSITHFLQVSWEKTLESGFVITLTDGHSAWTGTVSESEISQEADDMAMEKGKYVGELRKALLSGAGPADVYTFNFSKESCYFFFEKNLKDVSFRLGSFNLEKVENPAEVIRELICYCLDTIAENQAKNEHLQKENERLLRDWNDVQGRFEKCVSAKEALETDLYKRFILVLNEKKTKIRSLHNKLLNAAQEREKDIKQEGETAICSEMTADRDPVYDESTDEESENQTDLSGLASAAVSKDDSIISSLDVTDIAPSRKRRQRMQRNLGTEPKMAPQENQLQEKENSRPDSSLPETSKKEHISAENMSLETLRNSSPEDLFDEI
Experimental: The compounds of Formula I were evaluated for their specific inhibition activity towards enzyme DNA Ligase IV. DNA Ligase IV/XRCC4 was purified from bacteria using Ni-NTA column (FIG. 2A), and used for evaluation of inhibition of end joining of the compounds (01-41) at 200 μM (FIGS. 2B, C and D). The compounds were incubated with purified Ligase IV/XRCC4 in suitable NHEJ buffer at 25° C. for 30 min, followed by addition of radiolabeled DNA, and further incubation for 1 h at 25° C. Products were purified using phenol: chloroform and run on denaturing PAGE.
Effects of these compounds on NHEJ and Ligase IV mediated joining were evaluated (FIG. 4A-K). The reactions were terminated by EDTA (10 mM), products were purified using phenol/chloroform, precipitated with chilled ethanol and glycogen, and resolved on 8% denaturing PAGE. The gel was dried, exposed, and signal was detected using phosphor Imager FLA9000 (Fuji, Japan), and quantified in MultiGauge software expressed as Photo Stimulated Luminescence Units (PSLU). Inhibition of end joining was reported at 200 μM and 100 μM, respectively for SCR116 and SCR132 (FIGS. 4A, B, C and D), with >50% inhibition at 200 and 100 μM concentrations, respectively. […] FIG. 4K depict the purification profile of Ligase IV and XRCC4. Further FIGS. 4L-M represent inhibition of end joining catalysed by (FIG. 4L) purified Ligase III/XRCCI in presence of SCR116 and SCR132 (50, 100, 200, 500, 1000 μM) and (FIG. 4M) by purified Ligase I in presence of increasing concentrations of SCR116 and SCR132 (10, 50, 100, 200, 500, 1000 μM).

Molt3 = test: Cytotoxicity in Molt3; assay type: cell-based; conditions: Homo sapiens, MOLT-3; Table 2; read-out: IC50 in cancer cell lines, Molt3
Experimental: (§2) Ligase IV specificity of the compounds of the present invention inside the cells were also determined using Ligase IV knock out (KO) cell line N114 compared to the wild type Nalm6 (Table 2, FIGS. 5C, D, E and F). […] Table 1 showing IC50 of SCR7 derivatives in cancer cell lines Nalm6 and HeLa. IC50 was calculated using GraphPad Prism software from the percentage of viable cells following treatment with the compounds at 48 h. Table 2 showing IC50 of SCR116 and SCR132 in a panel of 16 cancer cell lines.

HCT116 = test: Cytotoxicity in HCT116; assay type: cell-based; conditions: Homo sapiens, HCT-116; Table 2; read-out: IC50 in cancer cell lines, HCT116
Experimental: as §2

53BP1 foci in Nalm6 = 53BP1 foci in Nalm6 cells; assay type: cell-based; conditions: 24 h, SCR116 2, 5 μM, SCR132 1, 2 μM
Experimental: as §1

[1] = mouse, in vivo, po
Experimental: The bioavailability of the compounds of the present disclosure were analysed in mice serum at different time points (0.5, 1, 2, 4, 6, 8, 10, 12, 24 and 48 h) by HPLC at 232 nm wavelength (FIGS. 10N-P).

[2] = system: Ligase IV knock out (KO) cell line N114; test: Cytotoxicity in Ligase IV knock out cell line N114; assay type: cell-based; conditions: Table 2, 48 h, read-out: IC50 in cancer cell lines, N114
Experimental: as §2

U118 = test: Cytotoxicity in U118; assay type: cell-based; conditions: Table 2; read-out: IC50 in cancer cell lines, U118
Experimental: as §2

Nalm6 = test: Cytotoxicity (viable cells) in Nalm6; assay type: cell-based; conditions: Homo sapiens, NALM-6, read-out: IC50 in cancer cell lines, Nalm6
Experimental: The compounds of the present invention were screened initially in leukemic and cervical cancer cell lines (Table 1). […] In cervical cancer cell line HeLa, IC50 was 5 and 2 μM, respectively for SCR116 and SCR132 (FIG. 5A-B).
as §2

Supt1 = test: Cytotoxicity in Supt1; assay type: cell-based; conditions: Homo sapiens, SUP-T1; Table 2; read-out: IC50 in cancer cell lines, Supt1
Experimental: as §2

CEM = test: Cytotoxicity in CEM; assay type: cell-based; conditions: Homo sapiens, CCRF-CEM; Table 2; read-out: IC50 in cancer cell lines, CEM
Experimental: as §2

SUDHL8 = test: Cytotoxicity in SUDHL8; assay type: cell-based; conditions: Homo sapiens, SU-DHL-8; Table 2; read-out: IC50 in cancer cell lines, SUDHL8
Experimental: as §2

L1210 = test: Cytotoxicity in L1210; assay type: cell-based; conditions: Mus musculus, L1210; Table 2; read-out: IC50 in cancer cell lines, L1210
Experimental: as §2

SCC131 derived xenograft = test: Mouse xenograft model, SCC131; assay type: in vivo; conditions: oral cancer SCC131 xenograft; 8 oral doses
Molt4 derived xenograft = test: Mouse xenograft model, Molt4; assay type: in vivo; conditions: for Tumor volume: alternate days; for Survival: tumor control animals died by day 18
Experimental: Effect of the compounds was further evaluated in mouse xenograft model generated using Ligase IV high human leukemic cell line, Molt4. Oral doses of SCR116 and SCR132 at 10 mg/kg and 15 mg/kg respectively were administered on alternate days.

[3] = system: V(D)J recombination in Nalm6 (pGG51); test: V(D)J recombination in Nalm6 using pGG51; assay type: cell-based; conditions: for Fold reduction in recombination efficiency: vs vehicle control
Experimental: Evaluation of efficiency of V(D)J recombination following treatment with SCR116 and SCR132 was carried out as depicted in FIGS. 6(A-C). Tables 4 and 5 summarize the effect of SCR116 (1 and 2 μM) and SCR132 (0.5 and 1 μM) on V(D)J recombination in Nalm6 using pGG49 and pGG51, respectively.

## Nc1nc(S)nc(O)c1/N=C/c1ccc([N+](=O)[O-])s1 [Compound 16, (E)-6-amino-2-mercapto-5-(((5-nitrothiophen-2-yl)methylene)amino)pyrimidin-4-ol]
HeLa cells
  DNA in the tail of the comet: increased amount of DNA in the tail of the comet
DNA Ligase IV/XRCC4
  inhibition at 50 µM: > 50%
  Inhibition of end joining compared with control: significant inhibition of end joining
  Concentration from which inhibition of end joining was seen: 5 µM
Molt3
  pIC50: 5.51
HCT116
  pIC50: 5.28
53BP1 foci in Nalm6
  53BP1 foci: significant increase in 53BP1 foci
[1]
  Course of serum level: continued to increase till 10 h
[2]
  pIC50: 4.85
U118
  pIC50: 5.25
Nalm6; Table 1, 48 h
  pIC50: 5.46
Nalm6; Table 2
  pIC50: 5.46
Supt1
  pIC50: 5.88
CEM
  pIC50: 5.24
SUDHL8
  pIC50: 6.16
L1210
  pIC50: 5.43
SCC131 derived xenograft
  Tumor volume: significant reduction in tumor volume
Molt4 derived xenograft; oral 10 mg/kg
  Tumor volume: effectively reduced the tumor volume
  Survival: survived the entire experimental period
[3]; 1 μM
  Recombination efficiency (CA/A) ×100: 0.030
[3]; 1 μM, listed as SCR116
  Fold reduction in recombination efficiency: 9 fold and 9.0 fold
[3]; 2 μM
  Recombination efficiency (CA/A) ×100: 0.005
[3]; 2 μM, listed as SCR116
  Fold reduction in recombination efficiency: 54 fold and 54.0 fold

## Nc1nc(S)nc(O)c1/N=C/c1sc(Cl)nc1Cl [Compound 32, (E)-6-amino-5-(((2,4-dichlorothiazol-5-yl)methylene)amino)-2-mercaptopyrimidin-4-ol]
HeLa cells
  DNA in the tail of the comet: increased amount of DNA in the tail of the comet
DNA Ligase IV/XRCC4
  inhibition at 50 µM: > 50%
  Inhibition of end joining compared with control: significant inhibition of end joining
  Concentration from which inhibition of end joining was seen: 10 µM
Molt3
  pIC50: 6.10
HCT116
  pIC50: 5.70
53BP1 foci in Nalm6
  53BP1 foci: significant increase in 53BP1 foci
[1]
  Course of serum level: became stabilized between 4 h and 6 h
[2]
  pIC50: 4.99
U118
  pIC50: 5.39
Nalm6; Table 1, 48 h
  pIC50: 5.75
Nalm6; Table 2
  pIC50: 5.75
Supt1
  pIC50: 6.13
CEM
  pIC50: 5.42
SUDHL8
  pIC50: 6.09
L1210
  pIC50: 6.06
SCC131 derived xenograft
  Tumor volume: significant reduction in tumor volume
Molt4 derived xenograft; oral 15 mg/kg
  Tumor volume: effectively reduced the tumor volume
  Survival: survived the entire experimental period
[3]; 0.5 μM
  Recombination efficiency (CA/A) ×100: 0.006
[3]; 0.5 μM, listed as SCR132
  Fold reduction in recombination efficiency: 50 fold and 50.0 fold
[3]; 1 μM
  Recombination efficiency (CA/A) ×100: 0.003
[3]; 1 μM, listed as SCR132
  Fold reduction in recombination efficiency: 106 fold and 106.6 fold
